What all share (assay): inhibition of tumour cell growth, NCI panel, 48 h
Assay [1] concerns SF-539 CNS.
For assay [2], the system named is RPMI-8226 leukemia.
Assay [3] has as its system LOX IMVI melanoma.
The test system of assay [4] is UACC-257 melanoma.
The subject of assay [5] is HCT-116 colon.
Assay [6] concerns HT29 colon.
In assay [7] the test system is A549 NSCLC.
Assay [8] has as its system TK-10 renal.
Assay [9] has as its system SW-620 colon.
Assay [10] relates to SK-MEL-2 melanoma.
The test system of assay [11] is M14 melanoma.
The subject of assay [12] is A498 renal.
In assay [13] the test system is RXF 393 renal.

Each structure is given as a SMILES string.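 Step 1: Grow cells in 96-well plates. Step 2: Expose to compound for 48 hours at 5 concentrations. Step 3: Interpolate endpoints linearly; if unreached, use highest concentration. TGI denotes the concentration required for complete inhibition of growth.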

`O=C1/C(=C/c2cccc([N+](=O)[O-])c2)Cc2ccccc21`: the TGI in assay [1], in [2], in assay [3], in assay [4], in assay [5] and in assay [6] was greater than 100 µM in each case. Besides, the TGI in [7], in assay [8], in assay [9], in assay [10] and in assay [11] was greater than 100 µM throughout.

Take `Clc1ccc2c(c1)CC1C[N+]3=C(CCCCC3)C1=C2` (stereo unspecified): the TGI in [3] was greater than 100 µM; in assay [4] it was 94.1 µM; in [5], greater than 100 µM; in assay [6], greater than 100 µM; in [7], greater than 100 µM; in assay [12], greater than 100 µM. The TGI in [13] was greater than 100 µM; in [8], greater than 100 µM; in assay [9], greater than 100 µM; in assay [10] it was 97 µM; in [11] it was greater than 100 µM.

`CC(C)(Cl)C(Cl)CC/C(CBr)=C(\Cl)CBr` (stereo unspecified): the TGI was 5.53 µM in assay [1]; 0.72 µM in [3]; 5.09 µM in assay [4]; 5.89 µM in assay [5]; 25 µM in assay [6]; 30.3 µM in assay [7]. Further, the TGI in [12] is greater than 58.2 µM; in assay [13] it was 3.78 µM; in [8], 3.82 µM; in assay [9], 3.28 µM; in [10], 3.28 µM; in [11] it was 3.22 µM.

For the molecule `C=C1C(=O)O[C@H]2C1C[C@H](O)/C(C)=C/CC[C@@]1(C)O[C@H]21` (stereo partly specified), the TGI in assay [2] is 31.5 µM; in assay [3], 23.5 µM; in assay [4], 34.5 µM; in assay [5], 28.6 µM; in assay [6], 50.9 µM; in [7], greater than 100 µM. Moreover, the TGI worked out at 31.9 µM in [13]; 29.9 µM in assay [8]; 21.6 µM in [9]; 39.9 µM in assay [10]; 23.9 µM in assay [11].

As to `c1cc2cc(Cc3ccc4[nH]ccc4c3)ccc2[nH]1`, the TGI was found to be 32.9 µM in [1]; 72.3 µM in assay [3]; 57.7 µM in assay [4]; 33.1 µM in assay [5]; 33.1 µM in assay [6]; 34.8 µM in assay [7]. In addition, the TGI is 37.3 µM in [12]; 37.7 µM in [13]; 52.3 µM in [8]; 93.3 µM in assay [9]; 44.3 µM in [10]; 37.7 µM in assay [11].

Turning to `O=C(O)c1ccccc1/C=N\N(CCO)C1=NCCN1`, the TGI in assay [1], in assay [2], in [3], in [5], in [6] and in assay [7] was greater than 100 µM throughout. For the same molecule, the TGI in assay [13], in assay [8], in assay [9], in assay [10] and in assay [11] was greater than 100 µM each time.

For `C[n+]1ccc2/c(=C\C#N)c3ccccc3n21`, the TGI is 31.3 µM in [2]; 40.4 µM in [3]; 13.9 µM in assay [4]; greater than 100 µM in assay [5]; 72.1 µM in assay [6]; 52.7 µM in assay [7]. Besides, the TGI in assay [13] was greater than 100 µM; in assay [8] it was 63.9 µM; in assay [9], greater than 100 µM; in assay [10] it was 89.9 µM; in [11], greater than 100 µM.

For the molecule `Oc1c(Cl)c(Cl)c(O)c(-c2cnc(-c3ncc(-c4c(O)c(Cl)c(Cl)c(O)c4Cl)s3)s2)c1Cl`, the TGI is 81.7 µM in assay [1]; 97.8 µM in assay [4]; 42 µM in assay [5]; greater than 100 µM in assay [6]; greater than 100 µM in assay [7]; 43.8 µM in [13]. Moreover, the TGI is 70.1 µM in [8], greater than 100 µM in assay [9], 54.1 µM in assay [10] and 47.2 µM in assay [11].

For `CCOC(OCC)[C@@H]1C[C@@H]2N(O[C@H](OC3CCCC3(c3ccccc3)c3ccccc3)[C@H](OC(C)=O)[C@@]2(CC)Cc2ccc(OC)c(OC)c2)O1` (stereo partly specified), the TGI in assay [1], in assay [3], in assay [4], in assay [5], in [6] and in assay [7] was greater than 100 µM throughout. In addition, the TGI in assay [13], in assay [8], in assay [9], in assay [10] and in assay [11] was greater than 100 µM in each case.

For the molecule `Cc1nc2c(n1Cc1ccc(F)cc1)C(=O)c1ccccc1C2=O`, the TGI in assay [1], in [3], in [4], in assay [5], in [6] and in assay [7] was greater than 100 µM in each case. Moreover, the TGI in assay [13] is 87.3 µM; in assay [8], greater than 100 µM; in assay [9], greater than 100 µM; in assay [10] it was greater than 100 µM; in assay [11], greater than 100 µM.

Take `CCCCCCC(O)C(=O)OC1C2C(CC1(C)C)C(O)C13OC1C(O)C1(CO1)[C@@]23C` (stereo partly specified): the TGI in assay [2] was greater than 100 µM; in assay [3] it was greater than 100 µM; in [4], greater than 100 µM; in assay [5] it was greater than 100 µM; in assay [7], greater than 100 µM; in assay [13] it was 59.4 µM. In addition, the TGI in assay [8] and in [11] was greater than 100 µM throughout.

As to `CCOC(=O)Cc1ccc(Nc2nc3cc(F)c(F)cc3nc2C(=O)OCC)cc1`, the TGI in assay [1], in [2], in assay [3], in [4], in assay [5] and in assay [6] was greater than 100 µM each time. The TGI was greater than 100 µM in [7]; greater than 100 µM in assay [13]; greater than 100 µM in [8]; greater than 100 µM in assay [9]; 92.2 µM in assay [10]; greater than 100 µM in assay [11].
